Results from patent US5556744A, “Methods and compositions for diagnosing and treating certain HIV infected patients” (The Trustees of the University of Pennsylvania, priority 1994, dated 1996).

Key:
[1] = tested on: maternal HIV+ sera (antibodies); assay: RIA / ELISA binding of maternal HIV+ sera to gp120 and gp41 peptides (Example 3); parameters: species or system human
Summary of the method: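 Maternal sera, diluted 1:50 and 1:500, were bound overnight at 4°C to peptides immobilized at 10 μg/ml (pH 9.6 carbonate) and blocked with 1% BSA. Read-out was ¹²⁵I-labelled anti-human IgG counts or HRP-TMB OD450. Signal with peptide minus without was expressed relative to seronegative serum.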

[2] = tested on: maternal sera (antibodies); assay: ELISA peptide-binding of maternal sera (Example 6); parameters: species or system human; conditions: for Number of Non-Transmitters which bound to peptide / Percent of Non-Transmitters which bound to peptide: N = 12; for Number of Transmitters which bound to peptide / Percent of Transmitters which bound to peptide: N = 4
Summary of the method: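 HIV-1 envelope peptides averaging 16 amino acids, covering external and transmembrane glycoprotein, were probed by ELISA. Third-trimester maternal sera, classed as transmitter or non-transmitter by child diagnosis, were each run on at least 40 peptides. Values give percent of sera binding a peptide.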

[3] = Serum No. 1, Non-Transmission Group
[4] = Serum No. 2, Non-Transmission Group
[5] = Serum No. 3, Non-Transmission Group
[6] = Serum No. 4, Transmission Group
[7] = Serum No. 5, Transmission Group
[8] = Serum No. 6, Non-Transmission Group
[9] = Serum No. 7, Non-Transmission Group
[10] = Serum No. 8, Non-Transmission Group
[11] = Serum No. 9, Non-Transmission Group
[12] = Serum No. 10, Transmission Group
[13] = Serum No. 11, Non-Transmission Group
[14] = Serum No. 12, Non-Transmission Group
[15] = Serum No. 13, Transmission Group
[16] = Serum No. 14, Transmission Group
[17] = Serum No. 15, Transmission Group
[18] = Serum No. 16, Non-Transmission Group
[19] = Serum No. 17, Non-Transmission Group
[20] = Serum No. 18, Non-Transmission Group
[21] = Serum No. 19, Transmission Group
[22] = Serum No. 20, Non-Transmission Group

Sequence	Binding of maternal HIV+ serum to peptide (sera/NHS ratio) [1, 3]	Binding of maternal HIV+ serum to peptide (sera/NHS ratio) [1, 4]	Binding of maternal HIV+ serum to peptide (sera/NHS ratio) [1, 5]	Binding of maternal HIV+ serum to peptide (sera/NHS ratio) [1, 6]	Binding of maternal HIV+ serum to peptide (sera/NHS ratio) [1, 7]	Binding of maternal HIV+ serum to peptide (sera/NHS ratio) [1, 8]	Binding of maternal HIV+ serum to peptide (sera/NHS ratio) [1, 9]	Binding of maternal HIV+ serum to peptide (sera/NHS ratio) [1, 10]	Binding of maternal HIV+ serum to peptide (sera/NHS ratio) [1, 11]	Binding of maternal HIV+ serum to peptide (sera/NHS ratio) [1, 12]	Binding of maternal HIV+ serum to peptide (sera/NHS ratio) [1, 13]	Binding of maternal HIV+ serum to peptide (sera/NHS ratio) [1, 14]	Binding of maternal HIV+ serum to peptide (sera/NHS ratio) [1, 15]	Binding of maternal HIV+ serum to peptide (sera/NHS ratio) [1, 16]	Binding of maternal HIV+ serum to peptide (sera/NHS ratio) [1, 17]	Binding of maternal HIV+ serum to peptide (sera/NHS ratio) [1, 18]	Binding of maternal HIV+ serum to peptide (sera/NHS ratio) [1, 19]	Binding of maternal HIV+ serum to peptide (sera/NHS ratio) [1, 20]	Binding of maternal HIV+ serum to peptide (sera/NHS ratio) [1, 21]	Binding of maternal HIV+ serum to peptide (sera/NHS ratio) [1, 22]	further results
RKSIGIQRGPGR [Peptide 1029-33]	+ (which value is between 2 to 3)	++ (which value is greater than 3)	+ (which value is between 2 to 3)	- (specific OD450 or cpm of sera sample binding to peptide divided by the specific OD450 or cpm of NHS sample binding to peptide, which value is less than 2)	+ (which value is between 2 to 3)	- (specific OD450 or cpm of sera sample binding to peptide divided by the specific OD450 or cpm of NHS sample binding to peptide, which value is less than 2)	- (specific OD450 or cpm of sera sample binding to peptide divided by the specific OD450 or cpm of NHS sample binding to peptide, which value is less than 2)	- (specific OD450 or cpm of sera sample binding to peptide divided by the specific OD450 or cpm of NHS sample binding to peptide, which value is less than 2)	- (specific OD450 or cpm of sera sample binding to peptide divided by the specific OD450 or cpm of NHS sample binding to peptide, which value is less than 2)	- (specific OD450 or cpm of sera sample binding to peptide divided by the specific OD450 or cpm of NHS sample binding to peptide, which value is less than 2)	+ (which value is between 2 to 3)	+ (which value is between 2 to 3)	+ (which value is between 2 to 3)	- (specific OD450 or cpm of sera sample binding to peptide divided by the specific OD450 or cpm of NHS sample binding to peptide, which value is less than 2)	+ (which value is between 2 to 3)	- (specific OD450 or cpm of sera sample binding to peptide divided by the specific OD450 or cpm of NHS sample binding to peptide, which value is less than 2)	+ (which value is between 2 to 3)	- (specific OD450 or cpm of sera sample binding to peptide divided by the specific OD450 or cpm of NHS sample binding to peptide, which value is less than 2)	- (specific OD450 or cpm of sera sample binding to peptide divided by the specific OD450 or cpm of NHS sample binding to peptide, which value is less than 2)	++ (which value is greater than 3)	Percentage of sera samples demonstrating binding to peptide, non-transmitter ([1]; Non-transmitter group, n = 13): 53.8%; Percentage of sera samples demonstrating binding to peptide, transmitter ([1]; Transmitter / transmission group, n = 7): 42.9%; Percent of the maternal serum samples that bound to the peptide ([1]; all 20 samples): 50%; Number of Non-Transmitters which bound to peptide [2]: 0; Percent of Non-Transmitters which bound to peptide [2]: 0%; Number of Transmitters which bound to peptide [2]: 0; Percent of Transmitters which bound to peptide [2]: 0%
SSGRMIMEKGEIKNCSFNIST [Peptide 59]	- (specific OD450 or cpm of sera sample binding to peptide divided by the specific OD450 or cpm of NHS sample binding to peptide, which value is less than 2)	- (specific OD450 or cpm of sera sample binding to peptide divided by the specific OD450 or cpm of NHS sample binding to peptide, which value is less than 2)	- (specific OD450 or cpm of sera sample binding to peptide divided by the specific OD450 or cpm of NHS sample binding to peptide, which value is less than 2)	- (specific OD450 or cpm of sera sample binding to peptide divided by the specific OD450 or cpm of NHS sample binding to peptide, which value is less than 2)	- (specific OD450 or cpm of sera sample binding to peptide divided by the specific OD450 or cpm of NHS sample binding to peptide, which value is less than 2)	- (specific OD450 or cpm of sera sample binding to peptide divided by the specific OD450 or cpm of NHS sample binding to peptide, which value is less than 2)	- (specific OD450 or cpm of sera sample binding to peptide divided by the specific OD450 or cpm of NHS sample binding to peptide, which value is less than 2)	- (specific OD450 or cpm of sera sample binding to peptide divided by the specific OD450 or cpm of NHS sample binding to peptide, which value is less than 2)	- (specific OD450 or cpm of sera sample binding to peptide divided by the specific OD450 or cpm of NHS sample binding to peptide, which value is less than 2)	- (specific OD450 or cpm of sera sample binding to peptide divided by the specific OD450 or cpm of NHS sample binding to peptide, which value is less than 2)	- (specific OD450 or cpm of sera sample binding to peptide divided by the specific OD450 or cpm of NHS sample binding to peptide, which value is less than 2)	- (specific OD450 or cpm of sera sample binding to peptide divided by the specific OD450 or cpm of NHS sample binding to peptide, which value is less than 2)	- (specific OD450 or cpm of sera sample binding to peptide divided by the specific OD450 or cpm of NHS sample binding to peptide, which value is less than 2)	- (specific OD450 or cpm of sera sample binding to peptide divided by the specific OD450 or cpm of NHS sample binding to peptide, which value is less than 2)	- (specific OD450 or cpm of sera sample binding to peptide divided by the specific OD450 or cpm of NHS sample binding to peptide, which value is less than 2)	- (specific OD450 or cpm of sera sample binding to peptide divided by the specific OD450 or cpm of NHS sample binding to peptide, which value is less than 2)	- (specific OD450 or cpm of sera sample binding to peptide divided by the specific OD450 or cpm of NHS sample binding to peptide, which value is less than 2)	- (specific OD450 or cpm of sera sample binding to peptide divided by the specific OD450 or cpm of NHS sample binding to peptide, which value is less than 2)	- (specific OD450 or cpm of sera sample binding to peptide divided by the specific OD450 or cpm of NHS sample binding to peptide, which value is less than 2)	- (specific OD450 or cpm of sera sample binding to peptide divided by the specific OD450 or cpm of NHS sample binding to peptide, which value is less than 2)	Binding of maternal sera to peptide (in words) ([1]; Example 3): No binding; Number of Non-Transmitters which bound to peptide [2]: 0; Percent of Non-Transmitters which bound to peptide [2]: 0%; Number of Transmitters which bound to peptide [2]: 0; Percent of Transmitters which bound to peptide [2]: 0%
